Assay results from PubChem BioAssay (NCI).
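Where inhibition never reached the appropriate level, the endpoint shown equals the highest concentration tested. Otherwise, values were interpolated linearly from a five-concentration, 48-hour dose response in 96-well plates. The concentration for full growth arrest is given as TGI.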

Experiments:
Test in all cases: growth of human tumour cells (NCI), 48 h
[1] = tested on: HOP-92 NSCLC
[2] = tested on: CCRF-CEM leukemia
[3] = tested on: HOP-62 NSCLC
[4] = tested on: SN12C renal
[5] = tested on: A498 renal
[6] = tested on: T-47D breast
[7] = tested on: PC-3 prostate
[8] = tested on: LOX IMVI melanoma
[9] = tested on: UO-31 renal
[10] = tested on: M14 melanoma
[11] = tested on: RXF 393 renal
[12] = tested on: NCI-H226 lung
[13] = tested on: NCI-H460 lung
[14] = tested on: MDA-MB-435
[15] = tested on: HL-60(TB) leukemia
[16] = tested on: SNB-75 CNS
[17] = tested on: NCI/ADR-RES ovarian

| Structure (SMILES) | TGI [1] | TGI [2] | TGI [3] | TGI [4] | TGI [5] | TGI [6] | TGI [7] | TGI [8] | TGI [9] | TGI [10] | TGI [11] | TGI [12] | TGI [13] | TGI [14] | TGI [15] | TGI [16] | TGI [17] |
| --- | --- | --- | --- | --- | --- | --- | --- | --- | --- | --- | --- | --- | --- | --- | --- | --- | --- |
| COc1cccc(-c2cc(=O)c3cc(N4CCCCC4)ccc3[nH]2)c1 | > 100 µM | > 100 µM | > 43.9 µM | > 100 µM | > 100 µM | > 100 µM | > 100 µM | > 100 µM | > 100 µM | > 100 µM | 1.62 µM | 0.0652 µM | – | – | – | – | – |
| Cc1nn(C(=O)Cc2ccccc2)c2c1C(c1ccccc1)SC(N)=N2 (stereo unspecified) | – | > 100 µM | > 100 µM | > 100 µM | > 100 µM | > 100 µM | > 100 µM | > 100 µM | > 100 µM | > 100 µM | – | > 100 µM | > 100 µM | > 100 µM | > 100 µM | > 100 µM | – |
| CCOC(=O)C(=[N+]=[N-])C(=O)CN1C(=O)c2ccccc2C1=O | > 100 µM | – | > 100 µM | > 100 µM | > 100 µM | > 100 µM | > 100 µM | – | > 100 µM | > 100 µM | > 100 µM | – | > 100 µM | > 100 µM | – | > 100 µM | – |
| CNC(=O)NCCCC(NC(C)=O)C(=O)NCc1ccccc1 (stereo unspecified) | > 100 µM | > 100 µM | > 100 µM | > 100 µM | > 100 µM | – | – | > 100 µM | > 100 µM | > 100 µM | > 100 µM | > 100 µM | > 100 µM | – | – | > 100 µM | – |
| COC(=O)c1cccc(C)c1C1CN=NC12Cc1cc(C)cc(C)c1C2=O (stereo unspecified) | > 100 µM | > 100 µM | > 100 µM | > 100 µM | > 100 µM | 53.7 µM | – | > 100 µM | > 100 µM | 93.6 µM | > 100 µM | > 100 µM | > 100 µM | 66.1 µM | 47.5 µM | 83.1 µM | > 100 µM |
| N#CSC#CCCC#CSC#N | 39.5 µM | > 100 µM | 33.7 µM | 31.9 µM | 37.7 µM | – | 48.3 µM | 40.5 µM | 33.5 µM | 26.4 µM | 35.7 µM | 58.2 µM | 48.4 µM | 56.2 µM | > 100 µM | – | 74.9 µM |
| Cc1cc(OC(=O)Nc2cccc3ccccc23)c(C(C)C)cc1C(=S)Nc1ccccc1 | – | 27.5 µM | 34.9 µM | – | – | 53.6 µM | 42.2 µM | 28.7 µM | 40.2 µM | 37 µM | – | – | 47.1 µM | 33.5 µM | 15.1 µM | – | 52.1 µM |
| O=S(=O)(O)c1cc(N=Nc2c(O)ccc3ccccc23)cc2c(S(=O)(=O)O)cccc12 | > 100 µM | > 100 µM | > 100 µM | – | > 100 µM | – | > 100 µM | – | > 100 µM | > 100 µM | > 100 µM | > 100 µM | > 100 µM | > 100 µM | > 100 µM | > 100 µM | > 100 µM |
